Measurements as given in patent US20250320190A1, “Novel Inhibitors of Leucine Carboxyl Methyltransferase-1 (LCMT-1) and Methods of Use Thereof” (Temple University-Of The Commonwealth System of Higher …, priority 2024, published 2025).

Legend:
Assay type in all cases: cell-based, human
SCC-15 cells [1] = assay: Annexin V assay with and without irradiation
Protocol: (§1) Head and neck cancer (HNC) cell lines were used for further analyses. Cells were seeded in 60 mm dishes at a density of 8×10^5 cells/dish. After 24 hours, cells were treated with LCMT-li, radiotherapy or both. Control cells were given fresh media. Because radiosensitization was seen between 2.5-10 μM in SCC-15, SCC-25, UM-SCC-49, and UM-SCC-69, irradiated cells were treated with or without 10 μM LCMT-li as described. Twenty-four hours after treatment, cells were lifted with Accutase and washed twice with PBS (pH 7.4) with 10% FBS. Cells were resuspended in annexin V binding buffer (10 mM HEPES (pH 7.4), 140 mM NaCl and 2.5 mM CaCl2)) and labeled with FITC-anti-Annexin V and 7-AAD (Biolegend, San Diego, California, FITC Annexin V Apoptosis Detection Kit with 7-AAD, catalog #640922). Cell surface annexin V expression was assessed immediately with flow cytometry. Annexin V assays were performed with 12 replicates, 104 cells/replicate.

UM-SCC-12 cells [2] = assay: Annexin V assay with and without irradiation
Protocol: as §1

SCC-25 cells [3] = assay: Annexin V assay with and without irradiation; details: alone or in combination with irradiation
Protocol: as §1

UM-SCC-14a cells = assay: Annexin V assay with and without irradiation; details: LCMT-li combined with irradiation
Protocol: as §1

UM-SCC-69 cells = assay: Annexin V assay with and without irradiation
Protocol: as §1

UM-SCC-49 cells = assay: Annexin V assay with and without irradiation; details: LCMT-li, irradiation or both
Protocol: as §1

SCC-15 cells [4] = assay: Western blots (pMLKL, ACSL4) with and without irradiation; details: alone or with irradiation
Protocol: (§2) To better understand cellular outcomes associated with combining LCMT-li with radiotherapy (Adjemian, S. et al., 2020, Cell Death Dis 11(11): 1003), SCC-15, SCC-25, UM-SCC-12, UM-SCC-14a and UM-SCC-49 cells were treated with LCMT-li, radiotherapy or both as described for Annexin V assays. UM-SCC-69 cells were not used for immunoblots because insufficient numbers of cells survived irradiation to obtain sufficient lysates. After 24 hours, cells were lysed in radioimmunoprecipitation assay buffer containing protease inhibitors (Boster Bio, Pleasanton, California, catalog #AR1182-1) and phosphatase inhibitors (Santa Cruz Biotechnology catalog #sc-45044 and #sc-45045). Protein concentrations were measured with a bicinchoninic acid assay (G-Biosciences, Saint Louis, Missouri). Fifty micrograms of each lysate were used for bis-tris polyacrylamide gel electrophoresis. Resolved lysates were transferred to nitrocellulose membranes. Membranes were blocked with TBS with 5% bovine serum albumin before incubation with primary antibodies.
(§3) The anti-phospho-mixed lineage kinase domain like pseudokinase (pMLKL) antibody was obtained from R&D Systems (Minneapolis, Minnesota, catalog #MAB9187-100, 1:1,000 dilution). Antibodies obtained from Proteintech (Rosemont, Illinois) included anti-MLKL (catalog #66675-1-Ig, 1:5,000 dilution) and anti-β-actin (catalog #66009-1-Ig, 1:50,000 dilution). The anti-long-chain-fatty-acid-Coenzyme A ligase 4 (ACSL4) antibody was obtained from Santa Cruz Biotechnology (Dallas, Texas, catalog #sc-365230, 1:1,000 dilution). Appropriate IR-dye secondary antibodies obtained from Jackson ImmunoResearch Laboratories (West Grove, Pennsylvania) were used (Alexa Fluor® 790-conjugated anti-mouse (catalog #115-655-146, 1:50,000 dilution), Alexa Fluor® 680-conjugated anti-mouse (catalog #115-625-146, 1:50,000 dilution), and Alexa Fluor® 680-conjugated anti-rabbit (catalog #115-625-144, 1:50,000 dilution). Band densities were normalized to β-actin, the endogenous control. Twelve replicates were used for statistical analyses.

UM-SCC-12 cells [5] = assay: as above; details: LCMT-li alone
Protocol: as §2, §3

SCC-25 cells [6] = assay: as above; details: alone and in combination with irradiation
Protocol: as §2, §3

MCF7 cells = assay: Cytotoxicity assay (calcein-AM); details: MCF7, 48 hours
Protocol: (§4) HS-5, HEK-293, MCF7, MDA-MB-231 and Rosi cells were seeded in 96-well optical bottom tissue culture plates (Corning, New York) at a density of 2.5×10^3 cells/well. After 24 hours, the media were changed to media containing LB-100 (Cayman Chemical Company, Ann Arbor, Michigan) or Compound 2 at various concentrations (50-0.31 μM). Control cells were given fresh media. After 48 hours the media were aspirated and plates were washed with warmed Dulbecco's phosphate-buffered saline (DPBS) with calcium and magnesium (Sigma-Aldrich, catalog #D1283). Cells were stained with 3 μM calcein-AM (AAT Bioquest, Pleasanton, California, catalog #22002) in DPBS for 30 minutes in the dark at 37° C. Plates were immediately read with a Biotek fluorescent plate reader (excitation 485 nm, emission 520 nm). The cytotoxicity assays were performed at least three times, each time with six replicates per condition.

MDA-MB-231 cells = assay: Cytotoxicity assay (calcein-AM); details: MDA-MB-231, 48 hours
Protocol: as §4

[7] = tested on: MDA-MB-231 cells transfected with the LCMT-1 expression vector; assay: Cytotoxicity assay in LCMT-1-transfected cells; details: MDA-MB-231 transfected with LCMT-1 vector
Protocol: MDA-MB-231 cells were also transfected with the LCMT-1 expression vector using Lipofectamine 3000 transfection reagent (Thermo Fisher Scientific, Waltham, Massachusetts) according to the manufacturer's transfection protocol for MDA-MB-231 cells. After 5 hours the medium was changed. The cells were split 1:100 the following day, and 2 days after transfection, selection with G418 sulfate (Mediatech, Herndon, Virginia) at […] for 2 weeks commenced to develop stably transfected cells. After the selection process, cells were used in Compound 2 cytotoxicity assays as previously described.

[8] = 10 μM LCMT-li with irradiation vs irradiation alone
[9] = LCMT-li monotherapy vs control cells
[10] = Homo sapiens, read-out: Log [μM] EC50 (converted)

`COC(=O)c1c(NC(=O)c2ccccc2C)sc(C(=O)Nc2cccc(C)c2)c1C` [Compound 2, methyl 4-methyl-2-[(2-methylbenzoyl)amino]-5-[[(3-methylphenyl)amino]carbonyl]-3-thiophenecarboxylate] was tested, and the “apoptosis (annexin V)” value (SCC-15 cells [1]; [8]) was “increased apoptosis in comparison to irradiation alone”, the “apoptosis (annexin V)” value (SCC-15 cells [1]; LCMT-li monotherapy vs control cells, 24 hours) was “increased apoptosis” and the “apoptosis (annexin V)” value (UM-SCC-12 cells [2]; [9]) was “increased apoptosis”. The “apoptosis (annexin V)” value (UM-SCC-12 cells [2]; with irradiation vs irradiation alone) was “did not increase apoptosis in the presence of irradiation as compared to irradiation alone”, the apoptosis or ferroptosis (SCC-25 cells [3]) was “did not increase apoptosis or ferroptosis” and the programmed cell death (UM-SCC-14a cells) was “did not increase programmed cell death”. The “apoptosis (annexin V)” value (UM-SCC-69 cells; [8]) was “increased apoptosis in comparison to irradiation alone”, the “apoptosis (annexin V)” value (UM-SCC-69 cells; [9]) was “increased apoptosis” and the “apoptosis, necroptosis and ferroptosis” value (UM-SCC-49 cells) was “did not differ between the experimental conditions”. For the same compound, the “necroptosis (pMLKL) and ferroptosis (ACSL4)” value (SCC-15 cells [4]) was “did not induce necroptosis or ferroptosis”, the “necroptosis (pMLKL) and ferroptosis (ACSL4)” value (UM-SCC-12 cells [5]) was “increased necroptosis and ferroptosis” and the “necroptosis (pMLKL expression)” value (SCC-25 cells [6]) was “increased necroptosis”. The EC50 (MCF7 cells; [10]) was 2.24 µM, the inhibition of survival (MCF7 cells; concentrations tested 50-0.31 μM) was “Neither LB-100 nor Compound 2 significantly inhibited survival” and the EC50 (MDA-MB-231 cells; [10]) was 3.89 µM. The “concentration at which survival was significantly inhibited” value (MDA-MB-231 cells) was 25 µM and the “effect of LCMT-1 overexpression on Compound 2-mediated cell death” value [7] was “induced resistance to Compound 2-mediated cell death”.
